Here are results for one compound from article PMC11898290, “TFEB promotes Ginkgetin-induced ferroptosis via TRIM25 mediated GPX4 lysosomal degradation in EGFR wide-type lung adenocarcinoma” (Theranostics, 2025).

In one experiment the target is T1, TFEB (Homo sapiens, UniProt P19484).
T1 construct: TFEB protein amine-coupled on CM5 chip (about 6500 RU)
T1 sequence (P19484 1-476): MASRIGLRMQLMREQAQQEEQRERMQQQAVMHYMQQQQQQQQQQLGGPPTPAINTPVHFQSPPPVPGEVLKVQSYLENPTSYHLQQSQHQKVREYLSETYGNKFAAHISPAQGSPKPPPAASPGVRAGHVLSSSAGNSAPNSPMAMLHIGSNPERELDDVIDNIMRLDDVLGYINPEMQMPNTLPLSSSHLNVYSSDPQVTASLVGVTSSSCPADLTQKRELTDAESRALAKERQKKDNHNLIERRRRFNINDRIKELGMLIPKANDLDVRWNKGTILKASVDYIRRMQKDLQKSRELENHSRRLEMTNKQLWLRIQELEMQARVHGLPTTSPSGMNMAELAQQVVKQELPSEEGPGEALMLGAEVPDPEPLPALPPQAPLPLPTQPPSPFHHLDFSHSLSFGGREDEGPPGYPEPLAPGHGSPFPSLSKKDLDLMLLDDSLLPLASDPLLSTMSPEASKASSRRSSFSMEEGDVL
The experiment is described as follows: SPR, Biacore S200, CM5 chip, steady-state fit. The following applies: 10 mM HEPES pH 7.4, 150 mM NaCl, 0.05% P20, 2% DMSO, 25 °C; GK 0.137-100 µM. The class given is binding. (In general: In SPR one partner is held on a chip, and binding of the other changes the refractive index at the surface.)

The target in experiment [1] is T2, TFEB-GFP (pcDNA3.1-TFEB-GFP) (Homo sapiens, UniProt P19484).
T2 sequence (P19484 1-476): T1 sequence (P19484 1-476)
The experiment is described as follows: microscale thermophoresis, GFP-fusion in cell lysate. The class given is binding. For orientation: In MST a laser heats a spot of the sample, and binding alters the fluorescence response.

By Kd is commonly meant the concentration at which binding is half-saturated. As for `COc1cc(O)c2c(=O)cc(-c3ccc(OC)c(-c4c(O)cc(O)c5c(=O)cc(-c6ccc(O)cc6)oc45)c3)oc2c1` [ginkgetin], the results for the Kd result (at TFEB; in experiment [1]) were “The binding affinity of GK to TFEB was determined by the SPR assay” and 28 µM, respectively.
